Data on six molecules can be found in ChEMBL document CHEMBL3217485, “Understanding and overcoming aminoglycoside resistance caused by N-6'-acetyltransferase” (Medchemcomm, 2012).

A short description of assay [1]: Inhibition of AAC(6')-lb (unknown origin).
Assay [2] in a line: Binding affinity to AAC(6')-lb (unknown origin).
Assay [3] is described as follows: Inhibition of AAC(6')-ly (unknown origin) in presence of ribostamycin.
Assay [4] in a line: Inhibition of AAC(6')-ly (unknown origin) in presence of kanamycin A.
In a further assay the test system is Escherichia coli. The assay is described as follows: Antibacterial activity against Escherichia coli ATCC 25922. Type of assay: functional.
A short description of assay [5]: Activity at AAC(6')-li (unknown origin).
Assay [6] can be described thus: Binding affinity to biotinylated Escherichia coli 16S rRNA A-site.
Assay [7] is described as follows: Ratio of Kcat to Km for AAC(6')-li (unknown origin).

As usually defined, the Ki is a measure of affinity in units of concentration, obtained from inhibition or displacement. As usually defined, the Kd is the equilibrium constant for the complex coming apart. Usually MIC stands for the smallest concentration in the dilution series that meets the test's criterion for growth inhibition. As usually defined, the Km is the concentration of substrate that gives half-maximal velocity. In general, kcat refers to the maximal rate divided by the concentration of active sites.

Molecules are shown by their SMILES. Values after ≈ are worked out from the molar mass of the structure shown.

In the case of `CC(C)(COP(=O)(O)OP(=O)(O)OC[C@H]1O[C@@H](n2cnc3c(N)ncnc32)[C@H](O)[C@@H]1OP(=O)(O)O)[C@@H](O)C(=O)NCCC(=O)NCCSCC(=O)NCc1ccc(O[C@H]2C[C@H](N)C[C@@H]2N)cc1`, the Ki in assay [1] is 500 nM. The Kd in assay [2] is 950 nM.
Turning to `N=C(N)N[C@H]1[C@@H](O[C@H]2[C@H](O[C@@H]3O[C@H](CO)[C@@H](O)[C@H]3O)[C@@H](O)[C@H](NC(=N)N)C[C@@H]2NC(=N)N)O[C@H](CNC(=O)CCN)[C@@H](O)[C@@H]1O`, the values for the Kii in assay [3] and in assay [4] were 92 µM and 23 µM, respectively. Also, the Kis in assay [3] was 17 µM; in assay [4], 31 µM.
Molecule `CN(CCCCN(C)C[C@@H](O)CO[C@@H]1[C@@H](O)[C@H](N)C[C@H](N)[C@H]1O[C@H]1O[C@H](CN)[C@@H](O)[C@H](O)[C@H]1N)C[C@@H](O)CO[C@@H]1[C@@H](O)[C@H](N)C[C@H](N)[C@H]1O[C@H]1O[C@H](CN)[C@@H](O)[C@H](O)[C@H]1N` displayed a minimal inhibitory concentration (MIC) against Escherichia coli of 6.25 µM (≈ 5.46 µg/mL). Also, in assay [5], the Km was determined as 28.7 µM and the kcat is 0.26 s⁻¹. In addition, in assay [6], the Kd was 40 nM. For the same molecule, the kcat/Km in assay [7] stood at 0.93 ×10⁴ /M/s.
`NC[C@H]1O[C@H](O[C@H]2[C@H](O)[C@@H](O)[C@H](N)C[C@@H]2N)[C@H](N)[C@@H](O)[C@@H]1O` [NEAMINE] gave a minimal inhibitory concentration (MIC) against Escherichia coli of 50 µM (≈ 16.1 µg/mL). Also, in assay [5], the Km was 5.82 µM and the turnover number (kcat) amounted to 0.419 s⁻¹. In assay [6], this molecule registered a Kd of 10000 nM. In addition, the kcat/Km in assay [7] was determined as 7.2 ×10⁴ /M/s.
In the assay with Escherichia coli, `NC[C@H]1O[C@H](O[C@H]2[C@H](OCC(=O)NCCCCCNC(=O)CO[C@@H]3[C@@H](O)[C@H](N)C[C@H](N)[C@H]3O[C@H]3O[C@H](CN)[C@@H](O)[C@H](O)[C@H]3N)[C@@H](O)[C@H](N)C[C@@H]2N)[C@H](N)[C@@H](O)[C@@H]1O` gave an MIC of 125 µM (≈ 103 µg/mL). In assay [5], the Michaelis constant (Km) is 83.6 µM and the kcat amounted to 1.89 s⁻¹. In assay [6], this molecule gave a Kd of 800 nM. Besides, the kcat/Km in assay [7] came to 2.26 ×10⁴ /M/s.
In the same order, the values of `NC[C@H]1O[C@H](O[C@H]2[C@H](OCC(=O)NCCCNC(=O)CO[C@@H]3[C@@H](O)[C@H](N)C[C@H](N)[C@H]3O[C@H]3O[C@H](CN)[C@@H](O)[C@H](O)[C@H]3N)[C@@H](O)[C@H](N)C[C@@H]2N)[C@H](N)[C@@H](O)[C@@H]1O` are 31 µM (≈ 24.8 µg/mL), 53.4 µM, 0.86 s⁻¹, 1100 nM and 1.6 ×10⁴ /M/s.
